Experimental data: PubChem BioAssay AID314 (DTP/NCI, 2004)
Where “and” joins values, the source holds several entries; their conditions need not be identical. Equal values may be shown once. Inconclusive results and toxic doses are left out. Rule for the calls: active = survival T/C of 150% or more; inactive = T/C below 125% in these data.

System: DBA/2 mice, P1534 leukemia ip, survival T/C
Assay: NCI In Vivo Anticancer Drug Screen. Data for tumor model P1534 Leukemia (intraperitoneal) in DBA/2 mice
Details: endpoint: mean survival time, higher = longer survival
Procedure: The antitumor activity of compounds was measured in mice bearing transplantable tumors. Survival or tumor size were measured and the results are expressed as the measurement made in the treated group (T) divided by the measurement made in the vehicle treated control group (C). The tumor model used in this assay is P1534 Leukemia (intraperitoneal) in DBA/2 mice

[1] = dose: 125.0 mg/kg/injection, schedule: Q01DX010 (ip), vehicle: saline
[2] = dose: 250.0 mg/kg/injection, schedule: Q01DX010 (ip), vehicle: saline
[3] = dose: 2.5 mg/kg/injection, schedule: Q01DX010 (ip), vehicle: saline
[4] = dose: 10.0 mg/kg/injection, schedule: Q01DX010 (ip), vehicle: saline
[5] = dose: 15.0 mg/kg/injection, schedule: Q01DX010 (ip), vehicle: saline
[6] = dose: 1.25 mg/kg/injection, schedule: Q01DX010 (ip), vehicle: saline
[7] = dose: 15.6 mg/kg/injection, schedule: Q01DX010 (ip), vehicle: saline
[8] = dose: 31.3 mg/kg/injection, schedule: Q01DX010 (ip), vehicle: saline
[9] = dose: 62.5 mg/kg/injection, schedule: Q01DX010 (ip), vehicle: saline
[10] = dose: 5.0 mg/kg/injection, schedule: Q01DX010 (ip), vehicle: saline
[11] = dose: 150.0 mg/kg/injection, schedule: Q01DX010 (ip), vehicle: saline
[12] = dose: 20.0 mg/kg/injection, schedule: Q01DX010 (ip), vehicle: saline
[13] = dose: 25.0 mg/kg/injection, schedule: Q01DX010 (ip), vehicle: saline
[14] = dose: 50.0 mg/kg/injection, schedule: Q01DX010 (ip), vehicle: saline
[15] = dose: 100.0 mg/kg/injection, schedule: Q01DX010 (ip), vehicle: saline
[16] = dose: 0.25 mg/kg/injection, schedule: Q01DX010 (ip), vehicle: saline
[17] = dose: 0.5 mg/kg/injection, schedule: Q01DX010 (ip), vehicle: saline
[18] = dose: 1.0 mg/kg/injection, schedule: Q01DX010 (ip), vehicle: saline
[19] = dose: 2.0 mg/kg/injection, schedule: Q01DX010 (ip), vehicle: saline
[20] = dose: 4.0 mg/kg/injection, schedule: Q01DX010 (ip), vehicle: saline
[21] = dose: 8.0 mg/kg/injection, schedule: Q01DX010 (ip), vehicle: saline
[22] = dose: 16.0 mg/kg/injection, schedule: Q01DX010 (ip), vehicle: saline
[23] = dose: 32.0 mg/kg/injection, schedule: Q01DX010 (ip), vehicle: saline
[24] = dose: 12.5 mg/kg/injection, schedule: Q01DX010 (ip), vehicle: saline
[25] = dose: 3.13 mg/kg/injection, schedule: Q01DX010 (ip), vehicle: saline
[26] = dose: 6.25 mg/kg/injection, schedule: Q01DX010 (ip), vehicle: saline

Measured: T/C

O=c1[nH]c(=O)n(C2CC(O)C(CO)O2)cc1I (stereo not drawn)
inactive: [1] 103 % of control and 107 % of control | [2] 103 % of control and 110 % of control | dose: 500.0 mg/kg/injection, schedule: Q01DX010 (ip), vehicle: saline 107 % of control and 114 % of control and 121 % of control | dose: 1000.0 mg/kg/injection, schedule: Q01DX010 (ip), vehicle: saline 110 % of control

COc1cc2c3c(c4ccc(OC)c(OC)c4c2cc1OC)CN1CCC[C@@H]1C3
inactive: [3] 88 % of control | [4] 92 % of control and 107 % of control | [5] 96 % of control and 121 % of control

O=C(O)c1[nH]c(=O)[nH]c(=O)c1F
inactive: [6] 86 % of control

COc1cc2c(c(OC)c1OC)-c1ccc(OC)c(=O)cc1[C@@H](NC(C)=O)CC2
inactive: dose: 0.01 mg/kg/injection, schedule: Q01DX010 (ip), vehicle: saline 107 % of control | dose: 0.02 mg/kg/injection, schedule: Q01DX010 (ip), vehicle: saline 110 % of control | dose: 0.04 mg/kg/injection, schedule: Q01DX010 (ip), vehicle: saline 114 % of control | dose: 0.08 mg/kg/injection, schedule: Q01DX010 (ip), vehicle: saline 121 % of control

O=C(OCC1OC(n2cnc3c(=S)nc[nH]c32)C(OC(=O)c2ccccc2)C1OC(=O)c1ccccc1)c1ccccc1 (stereo not drawn)
inactive: dose: 7.8 mg/kg/injection, schedule: Q01DX010 (ip), vehicle: saline 87 % of control | [7] 91 % of control | [8] 87 % of control | [9] 100 % of control | [1] 91 % of control | [2] 87 % of control

C=C(C(=O)OC1CC2CCC(C1)N2C)c1ccccc1 (stereo not drawn)
inactive: [10] 100 % of control

CN(C)Cc1c[nH]c2ccccc12
inactive: [7] 100 % of control | [8] 100 % of control

N#CCSc1ncnc2nc[nH]c12
inactive: [5] 89 % of control | dose: 30.0 mg/kg/injection, schedule: Q01DX010 (ip), vehicle: saline 100 % of control | dose: 60.0 mg/kg/injection, schedule: Q01DX010 (ip), vehicle: saline 96 % of control and 100 % of control

O=CN(O)CC(=O)O
inactive: [7] 93 % of control | [8] 93 % of control | [9] 96 % of control | [1] 93 % of control

CC(=O)O[C@]1(C(C)=O)CC[C@H]2[C@@H]3C[C@H](C)C4=CC(=O)C=C[C@]4(C)[C@@]3(F)[C@@H](O)C[C@@]21C
inactive: dose: 12.5 mg/kg/injection, schedule: Q01DX010 (sc), vehicle: steriod suspending solution 88 % of control

CN(C)c1nc(N(C)C)nc(N(C)C)n1
inactive: dose: 9.4 mg/kg/injection, schedule: Q01DX010 (ip), vehicle: saline 103 % of control and 111 % of control | [11] 103 % of control and 107 % of control

Cc1cc(N(CCCl)CCCl)ccc1N=Nc1ccccc1C(=O)O
inactive: [10] 114 % of control and 123 % of control | [4] 118 % of control | [12] 107 % of control and 111 % of control

CN(C)/N=N/c1nc[nH]c1C(N)=O
inactive: [13] 96 % of control | [14] 90 % of control | [15] 86 % of control

CO[C@@]12[C@H](COC(N)=O)C3=C(C(=O)C(C)=C(N)C3=O)N1C[C@@H]1N[C@@H]12
inactive: [16] 92 % of control | [17] 111 % of control | [18] 103 % of control | [19] 92 % of control

CCNNC(=O)[C@@H]1[C@H](c2cc(OC)c(OC)c(OC)c2)c2cc3c(cc2[C@H](O)[C@H]1CO)OCO3
inactive: [19] 100 % of control | [20] 100 % of control | [21] 96 % of control and 100 % of control and 111 % of control | [22] 100 % of control (2×) and 103 % of control | [23] 103 % of control

NC(Cc1ccc(N(CCCl)CCCl)cc1)C(=O)O (stereo not drawn)
inactive: dose: 0.5 mg/kg/injection, schedule: Q01DX010 (ip), vehicle: alkali diluted with saline 102 % of control and 111 % of control | dose: 1.0 mg/kg/injection, schedule: Q01DX010 (ip), vehicle: alkali diluted with saline 104 % of control | [6] 100 % of control and 119 % of control | dose: 2.0 mg/kg/injection, schedule: Q01DX010 (ip), vehicle: alkali diluted with saline 99 % of control | [3] 100 % of control | dose: 4.0 mg/kg/injection, schedule: Q01DX010 (ip), vehicle: alkali diluted with saline 101 % of control | [10] 100 % of control

Nc1nc2n[nH]nc2c(=O)[nH]1
inactive: dose: 3.0 mg/kg/injection, schedule: Q01DX010 (ip), vehicle: alkali diluted with saline 100 % of control and 115 % of control | dose: 6.0 mg/kg/injection, schedule: Q01DX010 (ip), vehicle: alkali diluted with saline 100 % of control and 111 % of control | dose: 12.0 mg/kg/injection, schedule: Q01DX010 (ip), vehicle: alkali diluted with saline 107 % of control and 113 % of control

NCCCCCCNC(=O)CCC(=O)NCCCCCCN
inactive: [22] 95 % of control | dose: 64.0 mg/kg/injection, schedule: Q01DX010 (ip), vehicle: saline 91 % of control

COC(=O)c1[nH]c(=O)[nH]c(=O)c1F
inactive: [18] 103 % of control | [20] 93 % of control

CSc1ncnc2nc[nH]c12
inactive: [24] 92 % of control | [15] 100 % of control

CC(=O)c1cccc(NC2C(N)C(NC(=O)N(C)C)(C(C)O)C(C)(O)C2(O)COC(=O)c2c(C)cccc2O)c1 (stereo not drawn)
inactive: [16] 90 % of control

COc1cc([C@@H]2c3cc4c(c(O)c3C[C@H]3COC(=O)[C@@H]32)OCO4)cc(OC)c1OC
inactive: dose: 39.0 micrograms/kg/injection, schedule: Q01DX010 (ip), vehicle: saline 100 % of control | dose: 78.0 micrograms/kg/injection, schedule: Q01DX010 (ip), vehicle: saline 103 % of control | dose: 156.0 micrograms/kg/injection, schedule: Q01DX010 (ip), vehicle: saline 90 % of control

O=NN(CCCl)C(=O)NCCCl
inactive: dose: 1.57 mg/kg/injection, schedule: Q01DX010 (ip), vehicle: saline 100 % of control and 103 % of control | [25] 103 % of control and 111 % of control | [26] 100 % of control

N=C(N)N
inactive: [15] 100 % of control | [11] 100 % of control | dose: 215.0 mg/kg/injection, schedule: Q01DX010 (ip), vehicle: saline 100 % of control

CCc1c(CC(=O)O)c2cc(C)ccc2n1Cc1ccc(Cl)cc1
inactive: [25] 103 % of control | [26] 107 % of control | [24] 103 % of control

NC(=O)N(CCCl)N=O
inactive: [17] 100 % of control | [18] 100 % of control | [19] 86 % of control

S=P(N1CC1)(N1CC1)N1CC1
inactive: [16] 91 % of control and 99 % of control | [17] 94 % of control and 100 % of control | [18] 95 % of control | [19] 87 % of control and 89 % of control

CS(=O)(=O)OCCC(=O)N1CCN(C(=O)CCOS(C)(=O)=O)CC1
inactive: [25] 107 % of control | [26] 103 % of control | [24] 119 % of control | [13] 120 % of control

O=C1C=CC2(CCC23C=CC(=O)O3)O1 (stereo not drawn)
inactive: [26] 100 % of control | [24] 100 % of control | [13] 106 % of control | [14] 86 % of control and 110 % of control

CN(C)c1ccc(/C=C/c2ccnc3ccccc23)cc1
inactive: [10] 100 % of control and 108 % of control | [4] 100 % of control | [12] 100 % of control and 108 % of control | dose: 40.0 mg/kg/injection, schedule: Q01DX010 (ip), vehicle: saline 100 % of control

Nc1nc(SCc2ccccc2)c2[nH]cnc2n1
inactive: [21] 92 % of control and 100 % of control | [22] 100 % of control | [8] 88 % of control | [23] 100 % of control and 103 % of control

O=C(Nc1ccc(C2=NCCN2)cc1)c1cc(Cl)cc(C(=O)Nc2ccc(C3=NCCN3)cc2)c1
inactive: dose: 140.0 mg/kg/injection, schedule: Q01DX010 (ip), vehicle: saline 96 % of control and 100 % of control | dose: 210.0 mg/kg/injection, schedule: Q01DX010 (ip), vehicle: saline 92 % of control and 107 % of control | dose: 315.0 mg/kg/injection, schedule: Q01DX010 (ip), vehicle: saline 96 % of control and 115 % of control | dose: 473.0 mg/kg/injection, schedule: Q01DX010 (ip), vehicle: saline 103 % of control and 111 % of control

N=C(N)c1ccc(Nc2ccc(C(=N)N)cc2)cc1
inactive: dose: 6.0 mg/kg/injection, schedule: Q01DX010 (ip), vehicle: saline 96 % of control | dose: 12.0 mg/kg/injection, schedule: Q01DX010 (ip), vehicle: saline 89 % of control and 100 % of control

S=P(N1CCOCC1)(N1CC1)N1CC1
inactive: [6] 100 % of control and 103 % of control | [3] 92 % of control and 100 % of control

O[C@H](CN1CC1)[C@@H](O)CN1CC1
inactive: dose: 0.13 mg/kg/injection, schedule: Q01DX010 (ip), vehicle: saline 88 % of control | [16] 96 % of control
